Source: patent US5585364A, “Antiviral compounds” (British Technology Group Limited, priority 1989, dated 1996)
Like-named read-outs stand apart in the source and are kept apart here.

How the values were obtained:
HIV 3B = assay: Anti-HIV testing: protection of MT4 cells from virus induced cytopathic effect (MTT uptake); type: cell-based, HIV-1; conditions: for Antiviral Activity: % Protection: MT4 cells, HIV 3B, 5 days, 37° C.
Protocol: (§1) The sample, considered of adequate quality for antiviral testing is assayed as follows:
(§2) The assays are carried out in 96 well (microtitre) panels using the MT4 cell line, infe3cted with IOTCID50 of HIV 3B. The antiviral activity and cytotoxicity of each compound is assayed simultaneously. Three compounds are screened on each panel. Each compound is tested at 100.0, 10.0, 1.0 and 0.1 μM, unless otherwise stated. AZT is included in each assay as a positive control at 10.0, 1.0, 0.1 and 0.01 μM.
(§3) The antiviral activity (in infected cells) and cytotoxicity (to uninfected cells) of each compound is determined by measuring the number of viable cells remaining after 5 days incubation of 37° C. and comparing them with infected or uninfected controls. The number of viable cells is determined by the addition of the tetrazolium dye MTT. […] Following MTT addition, the cells are solubilised with acidified isopropanol and the extent of MTT conversion is measured spectrophotometrically.
Antiviral activity is apparent through the ability of compounds to protect the cells from virus induced cytopathic effect. The result is reported as the percentage of cells protected at a given drug concentration.

[1] = Cytotoxicity to uninfected MT4 cells (MTT uptake); type: cell-based; conditions: human
Protocol: as §1, §2, §3

SMILES: Cc1cn([C@H]2C[C@H](N=[N+]=[N-])[C@@H](COP(=O)(OC[C@H]3O[C@@H](n4cc(C)c(=O)[nH]c4=O)C[C@@H]3N=[N+]=[N-])Oc3ccc(S(C)(=O)=O)cc3)O2)c(=O)[nH]c1=O [BTG 1704, 4-(methylsulphonyl)phenyl bis (3'-azido thymidin-5'-yl) phosphate]
- Antiviral Activity: % Protection (HIV 3B; 0.001 μM): 9%
- Antiviral Activity: % Protection (HIV 3B; 0.01 μM): 21%
- Antiviral Activity: % Protection (HIV 3B; 0.1 μM): 91%
- Antiviral Activity: % Protection (HIV 3B; 1.0 μM): 91%
- Antiviral Activity: % Protection (HIV 3B; 10 μM): 79%
- Antiviral Activity: % Protection (HIV 3B; 100 μM): 13%
- protection of MT4 cells from HIV-1 cytopathic effect (HIV 3B; concentrations between 0.1 and 10 μM): significant protection
- MCC at 120 h ([1]; estimated, not a quantitative test for cytotoxicity, read-out: toxic concentration of the drug): ~100 µM
- MCC at 120 h ([1]; uninfected MT4 cells, 5 days, 37° C., read-out: MTC): 100 µM
